Assay results taken from patent US20250296929A1, “NOVEL HEPATOSELECTIVE POLYADENYLATING POLYMERASES INHIBITORS AND THEIR METHOD OF USE” (BARUCH S. BLUMBERG INSTITUTE, priority 2021, published 2025).
Several values for one entry are separate records, joined by “and”; a condition that tells them apart may be missing. Equal values may be shown once. Read-outs that look alike come from different tables or passages of the source.

Key:
[1] = Pharmacokinetics after 3 mg/kg IV administration, plasma; format: in vivo, CD1 mice
Protocol: Protocol for pharmacokinetic and tissue distribution studies. The pharmacokinetics of the compounds was studied in CD1 mice after intravenous (IV) and oral gavage (PO) administration. Mouse PK studies was conducted at 3 mg/kg (IV) and 8 mg/kg (PO). Plasma samples obtained from dosed animals, at ten time points, including 5, 15 and 30 minutes and 1, 1.5, 2, 4, 6, 8 and 24 hr post-dose for processing to plasma, were prepared for analysis by means of a single step protein precipitation technique, by adding 200 μL of acetonitrile containing an IS mixture (labetalol, imipramine and diclofenac) to 50 μL aliquots of individual subject samples. Samples were mixed by vortex for homogeneity and then subjected to centrifugation at 4000 rpm for 10 min. The supernatant (200 μL) was collected and injected into the LC-MS/MS for analysis. Pharmacokinetic parameters will be calculated using established non-compartmental methods. The liver distribution of the compounds was studied in the PO group and liver tissues were collected at each time point after PO administration. Accurately weighed whole liver tissues were collected in a 50 mL tube, and 3 volumes per weight of water will be added. Tissue samples were homogenized and 50 μL of the homogenates will be processed along with plasma samples as described above.

[2] = test system: HBsAg secretion, HBV producing cell line HepG2.2.15; assay: Cellular assay: HBsAg inhibition in HBV producing cell line HepG2.2.15; format: cell-based; settings: Hepatitis B virus
Protocol: (§1) Cellular assays method 1: Cellular assays: The HBV producing cell line HepG2.2.15 was cultured in DMEM/F12 containing 10% fetal bovine serum (FBS), 100 U/ml penicillin and 100 μg/ml streptomycin (Invitrogen). Compounds of the disclosure in DMSO was added into the culture medium when cell reached 100% confluence. The final concentration of DMSO was adjusted to 0.5%. Culture medium was replaced in two days and the cell was cultured for additional two days in the presence of compound. HBsAg inhibition in culture medium was then detected with AlphaLisa assay using anti-HBsAg antibodies of 10-H05H and 60C-CR2100RB from Fitzgerald Internantional. To examine the change of nucleic acid, total RNA was extracted with Trizol reagents and resolved in glyoxal agarose gel. HBV RNA blotted onto nitrocellulose membrane was measured with P32 labeled ribo-probe. Reduction and shortening of viral RNA indicates on target effect of the tested compound. […] HepG2.2.15 cells were first seeded in 96-well plate (Corning, Cat #: CLS3595) at density of 10,000 cells/well in 100 ul DMEM/F12 medium containing 10% FBS. When cells reached 100% confluence, treatment with compounds of the disclosure was initiated, and cells were cultured in the way as described for HBsAg inhibition study. Four days post drug treatment, 100 ul of CellTiter-Glo reagents (Promega, Cat #G7570) were added into each well and the mixture was incubated at 23° C. for 12 minutes, followed by the reading of luminescent signal in Tecan's Infinite 200 PRO. Compound IC50 on HBsAg and CC50 on cell viability were calculated using Graphpad prism. The IC50 and CC50 are defined as the compound concentration (or conditioned media log dilution) at which HBsAg secretion and cytotoxicity, respectively, are reduced by 50% compared to the no drug control.
(§2) Cellular assays method 2: HepG2.2.15 cells were seeded in duplicate into white, 96-well plates at 1.5×10^4 cells/well. The cells were treated with a 3-fold serial dilution series of the compounds in DMSO. The final DMSO concentration in all wells was 1%, and DMSO was used as no drug control. The HBsAg chemiluminescence immunoassay (CLIA) kit (Autobio Diagnostics Co., Zhengzhou, China) was used to measure the levels of secreted HBV antigens semi-quantitatively. For the detection, 50 μL/well culture supernatant was used and the procedure conducted as directed by manufacturer's instructions. The cytotoxicity was measured using CellTiter-Glo (Promega, Madison, WI, USA, catalogue no. G7571). Dose-response curves were generated and the IC50 and CC50 values were calculated using Graphpad prism. The IC50 and CC50 are defined as the compound concentration (or conditioned media log dilution) at which HBsAg secrection and cytotoxicity, respectively, are reduced by 50% compared to the no drug control.

[3] = Cellular toxicity (CellTiter-Glo) in HepG2.2.15 cells; format: cell-based; settings: human
Protocol: as §1, §2

[4] = CD1, mouse, plasma, iv, 3 mg/kg, individual mice
[5] = CD1, mouse, plasma, iv, 3 mg/kg, mean

Compound: COc1cc2c(cc1OCCCCCCC(=O)O)C[C@@H](C(C)C)n1cc(C(=O)O)c(=O)cc1-2 [Example 6, (S)-9-((6-carboxyhexyl)oxy)-6-isopropyl-10-methoxy-2-oxo-6,7-dihydro-2H-pyrido[2,1-a]isoquinoline-3-carboxylic acid]
- Plasma concentration ([1]; 5 min, individual mice): 979 ng/mL and 689 ng/mL
- Plasma concentration ([1]; 0.25 h, individual mice): 103 ng/mL and 73.0 ng/mL
- Plasma concentration ([1]; 0.5 h, individual mice): 31.7 ng/mL and 24.9 ng/mL
- Plasma concentration ([1]; 1 h, individual mice): 8.52 ng/mL and 6.79 ng/mL
- Plasma concentration ([1]; 2 h, individual mice): 5.61 ng/mL and 5.51 ng/mL and 2.14 ng/mL
- Plasma concentration ([1]; 4 h, individual mice): 1.69 ng/mL and BLOQ
- Plasma concentration ([1]; 8 h, individual mice): BLOQ
- Plasma concentration ([1]; 24 h, individual mice): BLOQ
- concentration at 5 min ([1]; CD1, mouse, plasma, intravenous, 3 mg/kg, 5 min, individual mice, read-out: Plasma concentration): 817 ng/mL
- concentration at 5 min ([1]; CD1, mouse, plasma, intravenous, 3 mg/kg, 5 min, mean, read-out: Mean plasma concentration): 828 ng/mL
- concentration at 0.25 h ([1]; CD1, mouse, plasma, intravenous, 3 mg/kg, 0.25 h, individual mice, read-out: Plasma concentration): 82.3 ng/mL
- concentration at 0.25 h ([1]; CD1, mouse, plasma, intravenous, 3 mg/kg, 0.25 h, mean, read-out: Mean plasma concentration): 86 ng/mL
- concentration at 0.5 h ([1]; CD1, mouse, plasma, intravenous, 3 mg/kg, 0.5 h, individual mice, read-out: Plasma concentration): 32.8 ng/mL
- concentration at 0.5 h ([1]; CD1, mouse, plasma, intravenous, 3 mg/kg, 0.5 h, mean, read-out: Mean plasma concentration): 29.8 ng/mL
- concentration at 1 h ([1]; CD1, mouse, plasma, intravenous, 3 mg/kg, 1 h, individual mice, read-out: Plasma concentration): 11.4 ng/mL
- concentration at 1 h ([1]; CD1, mouse, plasma, intravenous, 3 mg/kg, 1 h, mean, read-out: Mean plasma concentration): 8.9 ng/mL
- concentration at 2 h ([1]; CD1, mouse, plasma, intravenous, 3 mg/kg, 2 h, mean): 4.42 ng/mL
- concentration at 4 h ([1]; CD1, mouse, plasma, intravenous, 3 mg/kg, 4 h, individual mice, read-out: Plasma concentration): 1.85 ng/mL
- concentration at 4 h ([1]; CD1, mouse, plasma, intravenous, 3 mg/kg, 4 h, mean, read-out: Mean plasma concentration): 1.77 ng/mL
- concentration at 8 h ([1]; CD1, mouse, plasma, intravenous, 3 mg/kg, 8 h, individual mice): 1.08 ng/mL
- AUC(0-inf) [1, 4]: 268 ng·h/mL
- AUC(0-t) [1, 4]: 263 ng·h/mL
- C0 ([1]; CD1, mouse, plasma, iv, 3 mg/kg, individual mice, read-out: C0): 2570 ng/mL
- AUC(0-inf) [1, 5]: 258 ng·h/mL
- AUC(0-t) [1, 5]: 255 ng·h/mL
- half-life [1, 5]: 88.8 min
- C0 ([1]; CD1, mouse, plasma, iv, 3 mg/kg, mean, read-out: C0): 2570 ng/mL
- MRT inf ([1]; CD1, mouse, plasma, iv, 3 mg/kg, mean, read-out: MRTInf —obs): 17.2 min
- Vd ([1]; CD1, mouse, plasma, iv, 3 mg/kg, mean, read-out: Vss —obs): 3.26 L/kg
- AUCInf ([1]; individual mice): 301 ng·h/mL and 206 ng·h/mL
- AUClast ([1]; individual mice): 298 ng·h/mL and 205 ng·h/mL
- AUC—% Extrap_obs ([1]; individual mice): 1.59% and 1.03% and 0.662%
- C0 ([1]; individual mice): 3016 ng/mL and 2115 ng/mL
- Cl_obs ([1]; individual mice): 187 mL/min/kg and 166 mL/min/kg and 242 mL/min/kg
- MRTInf —obs ([1]; individual mice): 30.1 min and 13.8 min and 7.68 min
- T1/2 ([1]; individual mice): 163 min and 76.2 min and 26.5 min
- Vss —obs ([1]; individual mice): 5.63 L/kg and 2.29 L/kg and 1.87 L/kg
- AUClast/D ([1]; mean): 85.1 kg·ng·h/mL/mg
- AUC—% Extrap_obs ([1]; mean): 1.09%
- Cl_obs ([1]; mean): 198 mL/min/kg
- EC50 [2]: 0.023 µM
- CC50 [3]: > 10 µM
